These results are taken from patent US5747503A, “Selective inhibitors of biogenic amine transporters” (priority 1996, dated 1998).

“Also recorded” adds a separate entry of the source.

The subject of experiment [1] is extracellular dopamine in the nucleus accumbens. Nature of the experiment: In vivo microdialysis of extracellular dopamine in nucleus accumbens. More on the design: species or system rat. How it is done: FIG. 3. In vivo microdialysis of extracellular dopamine in the nucleus accumbens at concentrations of 1, 10, and 100 μM of RTI-4793-14. All values are mean ±SEM (n=4). Group comparisons are made with one-way ANOVA and the Dunnetts t-test *p<0.05 and **p<0.01.
FIG. 4. Effects of systemic RTI-4793-14 (5 mg/kg, i.v.) on extracellular dopamine in the nucleus accumbens. All values are mean ± SEM (n=3). Group comparisons are made with one-way ANOVA and the Dunnetts t-test *p<0.05 and **p<0.01. FIG. 5. Schematic diagram for the synthesis of RTI-4793-41 and RTI-4793-48 compounds and analogs thereof.
Male Sprague Dawley rats (350-450 g) were anesthetized with chloral hydrate (400 mg/kg; 100 mg/ml) and supplemented as required (90 mg/kg) to abolish the corneal reflex. Animals were then placed in a stereotaxic frame and dialysis probes (CMA 12, 2 mm) were implanted into the nucleus accumbens (AP:+2mm, LAT:+l.5mm, H:-7.5mm relative to bregma) according to the atlas of Paxinos and Watson (Paxinos, G. "The rat brain in stereotaxic coordinates." (New York: Academic Press, 1982)). The dialysis probes were perfused with a physiological medium containing 145 mM NaCl, 4 mM KCl, 1.3 mM CaCl2, and 2 mM Na2 HPO41 the final pH of the medium being pH 7.4. The probes were dialyzed at a flow rate of […]. and samples were collected every 15 min.
The dialysis probes were allowed to equilibrate for 1-2 hours prior to collection of the baseline samples. […] RTI-4793-14 (1-100 μM) was then administered focally via the dialysis probe for a 15 min. sampling period at the end of which normal dialysis medium was dialyzed through the probe. Sampling continued for a further 3 samples before application of the subsequent concentration of RTI-4793-14. In a subsequent group of animals RTI-4793-14 was administered systemically (5mg/kg; 5mg/ml) via a femoral vein catheter.
The samples were analyzed for DA using HPLC with electrochemical detection. The mobile phase (75 mM NaH2 PO4, 1.5 mM sodium dodecyl sulphate, 20 mM EDTA, 15% acetonitrile and 12% methanol, pH 5.6) was filtered and degassed before pumping at a rate of 0.75 ml/min. through a HR-80 column (3m BDS, 80×4.6 mm). Electrochemical detection-was performed using a Coulochem II with Guard cell:+350 mV, Det 1: -75 mV, and Det 2: +22 mV.
In vivo microdialysis data were analyzed by using a one-way ANOVA and post-hoc Dunnetts t-test. In the focal RTI experiments in which 3 drug concentrations were administered, the baseline value for dopamine was defined as the sample preceding the application of each drug concentration. Analysis of any drug effect was therefore made comparing the baseline value prior to the drug administration.

Experiment [2] relates to eleven neurotransmitter, four regulatory site, four ion channel, and three second-messenger assays. In words: NovaScreen/NIMH Psychoactive Drug Discovery Program panel. To be noted: 10^-5 M. How it is done: Compound 3b also was tested in the NovaScreen/NIMH Psychoactive Drug Discovery Program which included eleven neurotransmitter, four regulatory site, four ion channel, and three second-messenger assays.

Another experiment has as its target NMDA receptor. Particulars: Table 2; literature values (footnotes 1 and 2); read-out: NMDA Induced Current IC50; cited from earlier work.
Another experiment concerns DA transporter. Particulars: Kuhar et al. 1990; cited from earlier work.

As for `CN1[C@H](Cc2ccccc2)C[C@H]2Cc3ccccc3[C@H]21` (relative stereo) [RTI-4793-14, (2RS, 3aSR, 8aRS)-1,2,3a,8,8a-Hexahydro-2-benzyl-1-methyl-indeno[1,2-b]pyrrole], the “increase in extracellular DA” value in experiment [1] (focal application via the microdialysis probe, 1 μM) is “about 2 fold”; in experiment [1] (focal application via the microdialysis probe, 10 μM), about 8 fold; in experiment [1] (intravenous, 5 mg/kg), “about 2 fold”. Moreover, the “effect on extracellular dopamine in words” value in experiment [1] (local or systemic administration in rats) is on record as “increased extracellular DA; also recorded: increase the levels of dopamine in the brain”. Besides, the “inhibition in NovaScreen panel” value in experiment [2] is given as “No significant inhibition”.

A word on the IC50: it is the concentration needed to halve the response being measured. With `c1ccc(C2(N3CCCCC3)CCCCC2)cc1` [PCP, phencyclidine], the IC50 on NMDA receptor is 2000 nM. Also, the “affinity at the DA transporter labeled with [^3 H]mazindol” value in the experiment on DA transporter is given as “low affinity”.
